Data from patent US20250171460A1, “INDUCERS OF KLF2 AND METHODS OF USE THEREOF” (Riparian Pharmaceuticals, Inc., priority 2022, published 2025).

Tested on: primary human endothelial cells expressing luciferase under the control of the KLF2 promoter
Assay: KLF2 Induction Cell Based Bioassay (luciferase reporter)
Conditions: Homo sapiens, Endothelial cell, 24 h, KLF2 promoter luciferase, 24 hours, 11-point concentration response; read-out: Activity Range (EC50)
Description: In endothelial cell culture media, a stock of the highest working concentration was made at no more than 1% DMSO vehicle. The working stock was then serially diluted 1:2 to make an 11-point concentration response curve. Included in the 96-well plate were 2 reference compounds with known potencies. A DMSO column was included in the 96-well plate at the highest percent vehicle of the working stocks. The 96-well cell culture plate of primary human endothelial cells expressing luciferase under the control of the KLF2 promoter was dosed with 200 μL per well of the dilution series as well as the DMSO control column. The assay plate was incubated at 37° C. for 24 hours. The supernatant was collected at 24 hours.
20 μL of the supernatant was then placed in a 384-well plate with optical duplicates. The corners of the plate received 20 μL of the Gaussia Luciferase Enzyme positive control, as well as 20 μL of the 50 μM Coelenterizine substrate. The plate read is then calibrated using the control, and read using a Molecular Devices SpectraMax iD5, providing luminescence in relative light units (RLU). The plate reader injected 20 μL of the 50 μM Coelenterizine substrate immediately before taking the RLU measurement for each well.
The sample signals were then normalized to the average signal of the DMSO column, as well as to the maximum signal of one of the reference compounds, as shown in the equations below: […]
The EC50 of each compound is then defined as when the concentration response curve passes 0.5.

EC50 [nM]	SMILES
≤ 50	COc1ccc(F)cc1CNC(=O)C1(C)COc2c(oc3cc(C(=O)NC4CCC4)ccc23)C(=O)N1CC1CC1 (stereo not shown) [Example 92]
≤ 50	COc1cccc(F)c1CNC(=O)C1(C)COc2c(oc3cc(C(=O)NC4CCC4)ccc23)C(=O)N1CC1CC1 (stereo not shown) [Example 93]
≤ 50	COCCN1C(=O)c2oc3cc(C(=O)NC4CCC4)ccc3c2OC[C@]1(C)C(=O)NCc1c(F)cccc1OC [Example 94]
501 to 5000	COCCN1C(=O)c2oc3cc(C)ccc3c2OCC1(C)C(=O)NCc1ccccc1OC (stereo not shown) [Example 95, N-(2-methoxybenzyl)-4-(2-methoxyethyl)-3,8-dimethyl-5-oxo-2,3,4,5-tetrahydrobenzofuro[2,3-f][1,4]oxazepine-3-carboxamide]
501 to 5000	C=C(C)c1ccc2c3c(oc2c1)C(=O)N(CCOC)C(C)(C(=O)NCc1ccccc1OC)CO3 (stereo not shown) [Example 96]
501 to 5000	COCCN1C(=O)c2oc3cc(C4CC4)ccc3c2OCC1(C)C(=O)NCc1ccccc1OC (stereo not shown) [Example 97]
501 to 5000	COCCN1C(=O)c2oc3cc(-c4cscn4)ccc3c2OCC1(C)C(=O)NCc1ccccc1OC (stereo not shown) [Example 99]
51 to 500	COCCN1C(=O)c2oc3cc(-c4cncs4)ccc3c2OCC1(C)C(=O)NCc1ccccc1OC (stereo not shown) [Example 100]
51 to 500	COCCN1C(=O)c2oc3cc(-c4nccs4)ccc3c2OCC1(C)C(=O)NCc1ccccc1OC (stereo not shown) [Example 101]
51 to 500	[2H]C([2H])([2H])N(C(=O)CN1C(=O)c2oc3ccc(Cl)cc3c2OC[C@]1(C)C(=O)NCc1c(F)cccc1OC)C([2H])([2H])[2H] [Example 102, (R)-4-(2-(bis(methyl-d3)amino)-2-oxoethyl)-9-chloro-N-(2-fluoro-6-methoxybenzyl)-3-methyl-5-oxo-2,3,4,5-tetrahydrobenzofuro[2,3-f][1,4]oxazepine-3-carboxamide]
51 to 500	[2H]C([2H])([2H])N(C(=O)CN1C(=O)c2oc3ccc(Cl)cc3c2OC[C@]1(C)C(=O)NCc1ncccc1OC)C([2H])([2H])[2H] [Example 103]
51 to 500	COc1cccnc1CNC(=O)[C@@]1(C)COc2c(oc3ccc(Cl)cc23)C(=O)N1CC(=O)N1CC(O)C1 [Example 104]
51 to 500	COc1cccc(F)c1CNC(=O)[C@@]1(C)COc2c(oc3ccc(Cl)cc23)C(=O)N1CC(=O)N1CC(O)C1 [Example 105]
51 to 500	[2H]C([2H])([2H])N(C(=O)CN1C(=O)c2oc3ccc(Cl)cc3c2OCC1(C)C(=O)NCc1ncccc1OCC)C([2H])([2H])[2H] (stereo not shown) [Example 109, 4-(2-(bis(methyl-d3)amino)-2-oxoethyl)-9-chloro-N-((3-ethoxypyridin-2-yl)methyl)-3-methyl-5-oxo-2,3,4,5-tetrahydrobenzofuro[2,3-f][1,4]oxazepine-3-carboxamide]
501 to 5000	[2H]C([2H])([2H])N(C(=O)CN1C(=O)c2oc3ccc(Cl)cc3c2OCC1(C)C(=O)NCc1ncccc1OC(C)C)C([2H])([2H])[2H] (stereo not shown) [Example 110]

The remaining lines, values behind:

SMILES	EC50 [nM]
COCCN1C(=O)c2oc3cc(C(=O)NC4(C)COC4)ccc3c2OCC1(C)C(=O)NCc1ncccc1OC (stereo not shown) [Example 66]	501 to 5000
COc1cccc(C#N)c1CNC(=O)C1(C)COc2c(oc3cc(C(=O)NC4CCC4)ccc23)C(=O)N1CC1CC1 (stereo not shown) [Example 67]	51 to 500
COc1cccc(F)c1CNC(=O)C1(C)COc2c(oc3cc(C(=O)NC4(C)COC4)ccc23)C(=O)N1[C@H]1C[C@@H](OC)C1 (stereo partly shown) [Example 68]	51 to 500
COc1cc(F)ccc1CNC(=O)C1(C)COc2c(oc3cc(C(=O)NC4(C)COC4)ccc23)C(=O)N1[C@H]1C[C@@H](OC)C1 (stereo partly shown) [Example 69]	51 to 500
COc1ccc(F)cc1CNC(=O)C1(C)COc2c(oc3cc(C(=O)NC4(C)COC4)ccc23)C(=O)N1[C@H]1C[C@@H](OC)C1 (stereo partly shown) [Example 70]	51 to 500
COc1cc(F)ccc1CNC(=O)C1(C)COc2c(oc3cc(C(=O)NC4CCC4)ccc23)C(=O)N1[C@H]1C[C@@H](OC)C1 (stereo partly shown) [Example 71]	51 to 500
COc1cc(F)ccc1CNC(=O)C1(C)COc2c(oc3cc(C(=O)NC4CCC4)ccc23)C(=O)N1CC1CC1 (stereo not shown) [Example 72]	51 to 500
COc1ccc(F)cc1CNC(=O)C1(C)COc2c(oc3cc(C(=O)NC4CCC4)ccc23)C(=O)N1[C@H]1C[C@@H](OC)C1 (stereo partly shown) [Example 73]	51 to 500
COCCN1C(=O)c2oc3cc(C(=O)NC4(C)COC4)ccc3c2OCC1(C)C(=O)NCc1cc(F)ccc1OC (stereo not shown) [Example 74]	501 to 5000
COCCN1C(=O)c2oc3cc(C(=O)NC4CCC4)ccc3c2OCC1(C)C(=O)NCc1cc(F)ccc1OC (stereo not shown) [Example 75]	51 to 500
COCCN1C(=O)c2oc3cc(C(=O)NC4(C)COC4)ccc3c2OCC1(C)C(=O)NCc1ccc(F)cc1OC (stereo not shown) [Example 76]	51 to 500
COCCN1C(=O)c2oc3cc(C(=O)NC4CCC4)ccc3c2OCC1(C)C(=O)NCc1ccc(F)cc1OC (stereo not shown) [Example 77]	51 to 500
COc1cccnc1CNC(=O)C1(C)COc2c(oc3cc(C(=O)NC4(C)COC4)ccc23)C(=O)N1[C@H]1C[C@@H](OC)C1 (stereo partly shown) [Example 78]	51 to 500
COCCN1C(=O)c2oc3cc(C(=O)NC4(C)COC4)ccc3c2OC[C@]1(C)C(=O)NCc1c(F)cccc1OC [Example 79]	51 to 500
COc1ccc(F)cc1CNC(=O)C1(C)COc2c(oc3cc(C(=O)NC4CCC4)ccc23)C(=O)N1[C@H]1C[C@H](OC)C1 (stereo partly shown) [Example 80]	501 to 5000
COc1ccc(F)c(F)c1CNC(=O)C1(C)COc2c(oc3cc(C(=O)NC4CCC4)ccc23)C(=O)N1[C@H]1C[C@@H](OC)C1 (stereo partly shown) [Example 82]	51 to 500
COc1ccc(F)c(F)c1CNC(=O)C1(C)COc2c(oc3cc(C(=O)NC4(C)COC4)ccc23)C(=O)N1[C@H]1C[C@@H](OC)C1 (stereo partly shown) [Example 83]	51 to 500
COc1cccc(Cl)c1CNC(=O)C1(C)COc2c(oc3cc(C(=O)NC4CCC4)ccc23)C(=O)N1[C@H]1C[C@@H](OC)C1 (stereo partly shown) [Example 84]	≤ 50
COc1cccc(Cl)c1CNC(=O)C1(C)COc2c(oc3cc(C(=O)NC4(C)COC4)ccc23)C(=O)N1[C@H]1C[C@@H](OC)C1 (stereo partly shown) [Example 85]	≤ 50
COc1cccc(Cl)c1CNC(=O)C1(C)COc2c(oc3cc(C(=O)NC4(C)COC4)ccc23)C(=O)N1CC1CC1 (stereo not shown) [Example 86]	≤ 50
COc1cccc(Cl)c1CNC(=O)C1(C)COc2c(oc3cc(C(=O)NC4CCC4)ccc23)C(=O)N1CC1CC1 (stereo not shown) [Example 87]	≤ 50
COCCN1C(=O)c2oc3cc(C(=O)NC4CCC4)ccc3c2OCC1(C)C(=O)NCc1c(Cl)cccc1OC (stereo not shown) [Example 88]	≤ 50
COc1cccc(F)c1CNC(=O)C1(C)COc2c(oc3cc(C(=O)NC4(C)COC4)ccc23)C(=O)N1CC1CC1 (stereo not shown) [Example 89]	≤ 50
COCCN1C(=O)c2oc3cc(C(=O)NC4CCC4)ccc3c2OCC1(C)C(=O)NCc1c(C#N)cccc1OC (stereo not shown) [Example 90]	≤ 50
COc1cccc(F)c1CNC(=O)C1(C)COc2c(oc3cc(C(=O)NC4CCC4)ccc23)C(=O)N1[C@H]1C[C@@H](OC)C1 (stereo partly shown) [Example 91]	≤ 50

Same assay, conditions: Homo sapiens, Endothelial cell, Bioactivity of stereoisomers: R isomer; read-out: Bioactivity Bucket, R

EC50 [nM]	SMILES
51 to 500	COCCN1C(=O)c2oc3cc(C(=O)NC4(C)COC4)ccc3c2OC[C@]1(C)C(=O)NCc1c(F)cccc1OC [Example 79]
51 to 500	[2H]C([2H])([2H])N(C(=O)CN1C(=O)c2oc3ccc(Cl)cc3c2OC[C@]1(C)C(=O)NCc1c(F)cccc1OC)C([2H])([2H])[2H] [Example 102, (R)-4-(2-(bis(methyl-d3)amino)-2-oxoethyl)-9-chloro-N-(2-fluoro-6-methoxybenzyl)-3-methyl-5-oxo-2,3,4,5-tetrahydrobenzofuro[2,3-f][1,4]oxazepine-3-carboxamide]

Same assay, conditions: KLF2 promoter luciferase, 24 hours, 11-point concentration response; read-out: Activity Range (EC50)

EC50 [nM]	SMILES
51 to 500	COc1cccc(F)c1CNC(=O)C1(C)COc2c(oc3ccc(Cl)cc23)C(=O)N1Cc1ncnn1C (stereo not shown) [Example 108, 9-chloro-N-(2-fluoro-6-methoxybenzyl)-3-methyl-4-((1-methyl-11H-1,2,4-triazol-5-yl)methyl)-5-oxo-2,3,4,5-tetrahydrobenzofuro[2,3-f][1,4]oxazepine-3-carboxamide]
